# Patent US11802120B2, “Fused cyclic urea derivatives as CRHR2 antagonist” (RaQualia Pharma Inc., priority 2018, dated 2023)
# Assays:
# human CRHR2-alpha = biological target: T1, human CRHR2-alpha (Homo sapiens, UniProt Q13324); assay: cAMP functional assay for human CRHR2 (LANCE Ultra cAMP, TR-FRET); format: cell-based; settings: CHO-K1 cells expressing human CRHR2-alpha, agonist human urocortin2 at EC80, cAMP; read-out: IC50 against CRHR2
# T1 sequence (Q13324 1-411): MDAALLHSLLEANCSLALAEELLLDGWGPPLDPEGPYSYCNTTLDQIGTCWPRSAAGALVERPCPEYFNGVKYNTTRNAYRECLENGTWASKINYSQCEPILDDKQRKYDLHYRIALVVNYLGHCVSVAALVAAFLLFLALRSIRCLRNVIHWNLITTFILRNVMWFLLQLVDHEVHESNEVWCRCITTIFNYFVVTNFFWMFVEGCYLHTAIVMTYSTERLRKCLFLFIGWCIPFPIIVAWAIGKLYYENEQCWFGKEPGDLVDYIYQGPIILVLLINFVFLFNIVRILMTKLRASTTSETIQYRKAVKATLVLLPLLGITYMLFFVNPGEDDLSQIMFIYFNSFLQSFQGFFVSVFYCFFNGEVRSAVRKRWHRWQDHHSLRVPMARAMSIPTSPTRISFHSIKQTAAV
# How it was run: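 IC50 values derive from percent inhibition of EC80 agonist-stimulated cAMP in CHO-K1 transfectants, with 0.5 mM IBMX present; the CRHR2 line was stimulated by human urocortin2 and the CRHR1 line by CRF.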
# human CRHR1-beta = biological target: T2, human CRHR1-beta (Homo sapiens, UniProt P34998); assay: cAMP functional assay for human CRHR1 (LANCE Ultra cAMP, TR-FRET); format: cell-based; settings: CHO-K1 cells expressing human CRHR1-beta, agonist CRF at EC80, cAMP; read-out: IC50 against CRHR1
# T2 sequence (P34998 24-444 isoform P34998-1 limits assumed): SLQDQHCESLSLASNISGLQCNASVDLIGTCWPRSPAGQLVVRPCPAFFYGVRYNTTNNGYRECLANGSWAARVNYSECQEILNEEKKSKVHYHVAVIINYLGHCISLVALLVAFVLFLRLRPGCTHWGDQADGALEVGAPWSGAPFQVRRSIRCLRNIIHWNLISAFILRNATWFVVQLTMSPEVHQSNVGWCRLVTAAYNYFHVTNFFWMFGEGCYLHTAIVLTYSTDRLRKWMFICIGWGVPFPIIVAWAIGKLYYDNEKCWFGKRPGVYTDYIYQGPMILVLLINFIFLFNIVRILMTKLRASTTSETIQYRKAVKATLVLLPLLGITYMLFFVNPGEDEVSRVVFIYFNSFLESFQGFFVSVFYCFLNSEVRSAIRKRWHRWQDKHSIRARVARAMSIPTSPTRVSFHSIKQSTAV
# Description: cAMP functional assay for human CRHR1 and CRHR2
# The ability of the compounds of this invention to inhibit either CRHR2 or CRHR1 is assessed by 3′,5′-cyclic adenosine monophosphate (cAMP) production in cells using the LANCE Ultra cAMP assay kit (ParkinElmer), which are designed based on the homogeneous time-resolved fluorescence resonance energy transfer (TR-FRET) immunoassay.
# CHO-K1 (Chinese hamster ovary) cells stably expressing either human CRHR2-alpha (DiscoveRX, Cat. 95-0048C2) or human CRHR1-beta (DiscoveRX, Cat. 95-0047C2) are grown in HAM's F12 media supplemented with 10% fetal bovine serum (FBS), 100 units/mL penicillin, 100 microg/mL hygromycin and 0.5 microg/mL geneticin at 37° C. in 5% CO2 humidified incubator to 80% confluence. After 7 hours starvation treatment in culture media containing 0.1% FBS, the cells are washed with Hanks balanced salt solution (HBSS) and cryopreserved.
# For cAMP assay, frozen cells are thawed and washed with HBSS, followed by resuspended in assay buffer (HBSS containing 0.1% bovine serum albumin, 0.5 mM isobutylmethylxanthine and 5 mM Hepes, pH 7.4) at the appropriate concentration for the assay. The cell suspensions are plated on 384-well microplates (Greiner Bio-One) at a density of 4,000 cells per well. After preincubating the cells with various concentrations of the compounds for 30 min at 25° C., an assay buffer containing EC80 concentration of each agonist is added and the cells are incubated for 30 min at 25° C. Human urocortin2 (Peptide Institute) and CRF (Peptide Institute) are used as agonists for CRHR2 and CRHR1, respectively. For the termination of assay, europium-labeled cAMP tracer and ULight (registered trademark) dye labeled cAMP antibodies, both prepared with Lance-Ultra cAMP detection reagent (Perkin Elmer) are added in the plate and incubate for 60 min at 25° C. After incubation, TR-FRET signal is detected by EnVision plate reader (PerkinElmer). The IC50 values for compounds are calculated from dose-response curves by fitting the percent inhibition using XLfit (ID Business Solutions).
SMILES,IC50 (human CRHR2-alpha) [nM],IC50 (human CRHR1-beta) [nM]
"Cc1ncc(Cl)cc1C(=O)N[C@H]1CC[C@H](Cn2c(=O)n(-c3ccc(N(C)CCCO)nc3)c3ccccc32)CC1 [Example 94, 5-chloro-N-((1r,4r)-4-((3-(6-((3-hydroxypropyl)(methyl)amino)pyridin-3-yl)-2-oxo-2,3-dihydro-1H-benzo[d]imidazol-1-yl)methyl)cyclo-hexyl)-2-methylnicotinamide]",< 300,< 1000
"COc1cc(-n2c(=O)n(C[C@H]3CC[C@H](NC(=O)c4cc(Cl)cnc4C)CC3)c3ccccc32)ccn1 [Example 45, 5-chloro-N-((1r,4r)-4-((3-(2-methoxypyridin-4-yl)-2-oxo-2,3-dihydro-1H-benzo[d]imidazol-1-yl)methyl)cyclohexyl)-2-methylnicotinamide]",< 300,< 1000
"Cc1ncc(Cl)cc1C(=O)N[C@H]1CC[C@H](Cn2c(=O)n(-c3ccc(OCCO)nn3)c3ccccc32)CC1 [Example 69, 5-chloro-N-((1r,4r)-4-((3-(6-(2-hydroxyethoxy)pyridazin-3-yl)-2-oxo-2,3-dihydro-1H-benzo[d]imidazol-1-yl)methyl)cyclohexyl)-2-methylnicotinamide]",,< 1000
"Cc1ccc(-n2c(=O)n(C[C@H]3CC[C@H](NC(=O)c4cc(Cl)cnc4C)CC3)c3ccccc32)c(C)n1 [Example 32, 5-chloro-N-((1r,4r)-4-((3-(2,6-dimethylpyridin-3-yl)-2-oxo-2,3-dihydro-1H-benzo[d]imidazol-1-yl)methyl)cyclohexyl)-2-methylnicotinamide]",< 300,< 1000
"Cc1ncc(Cl)cc1C(=O)N[C@H]1CC[C@H](Cn2c(=O)n(-c3ccc(N4CCN(CCO)CC4)nc3)c3ccccc32)CC1 [Example 65, 5-chloro-N-((1r,4r)-4-((3-(6-(4-(2-hydroxyethyl)piperazin-1-yl)pyridin-3-yl)-2-oxo-2,3-dihydro-1H-benzo[d]imidazol-1-yl)methyl)cyclohexyl)-2-methylnicotinamide]",,< 1000
"COc1ncc(-n2c(=O)n(C[C@H]3CC[C@H](NC(=O)c4cc(Cl)cnc4C)CC3)c3ccccc32)cn1 [Example 43, 5-chloro-N-((1r,4r)-4-((3-(2-methoxypyrimidin-5-yl)-2-oxo-2,3-dihydro-1H-benzo[d]imidazol-1-yl)methyl)cyclohexyl)-2-methylnicotinamide]",,< 1000
"Cc1ncc(Cl)cc1C(=O)N[C@H]1CC[C@H](Cn2c(=O)n(CC3CCOCC3)c3ccccc32)CC1 [Example 3, 5-chloro-2-methyl-N-((1r,4r)-4-((2-oxo-3-((tetrahydro-2H-pyran-4-yl)methyl)-2,3-dihydro-1H-benzo[d]imidazol-1-yl)methyl)cyclohexyl)nicotinamide]",,< 1000
"CNC(=O)c1ccc(-n2c(=O)n(C[C@H]3CC[C@H](NC(=O)c4cc(Cl)cnc4C)CC3)c3ccccc32)cn1 [Example 63, 5-(3-(((1r,4r)-4-(5-chloro-2-methylnicotinamido)cyclohexyl)methyl)-2-oxo-2,3-dihydro-1H-benzo[d]imidazol-1-yl)-N-methylpicolinamide]",< 300,< 1000
"Cc1ncc(Cl)cc1C(=O)N[C@H]1CC[C@H](Cn2c(=O)n(-c3ccc(C(N)=O)nc3)c3ccccc32)CC1 [Example 62, 5-(3-(((1r,4r)-4-(5-chloro-2-methylnicotinamido)cyclohexyl)methyl)-2-oxo-2,3-dihydro-1H-benzo[d]imidazol-1-yl)picolinamide]",< 300,< 1000
"Cc1ncc(Cl)cc1C(=O)N[C@H]1CC[C@H](Cn2c(=O)n(-c3ccc(OCCO)nc3)c3ccccc32)CC1 [Example 50, 5-chloro-N-((1r,4r)-4-((3-(6-(2-hydroxyethoxy)pyridin-3-yl)-2-oxo-2,3-dihydro-1H-benzo[d]imidazol-1-yl)methyl)cyclohexyl)-2-methylnicotinamide]",< 300,< 1000
"Cc1ncc(Cl)cc1C(=O)N[C@H]1CC[C@H](Cn2c(=O)n(-c3ccc(N4CC[C@H](O)C4)nc3)c3ccccc32)CC1 [Example 80, 5-chloro-N-((1S,4r)-4-((3-(6-((S)-3-hydroxypyrrolidin-1-yl)pyridin-3-yl)-2-oxo-2,3-dihydro-1H-benzo[d]imidazol-1-yl)methyl)cyclohexyl)-2-methylnicotinamide]",,< 1000
"Cc1ncc(Cl)cc1C(=O)N[C@H]1CC[C@H](Cn2c(=O)n(-c3ccc(OCCN(C)C)nc3)c3c(C)cccc32)CC1 [Example 59, 5-chloro-N-((1r,4r)-4-((3-(6-(2-(dimethylamino)ethoxy)pyridin-3-yl)-4-methyl-2-oxo-2,3-dihydro-1H-benzo[d]imidazol-1-yl)methyl)cyclohexyl)-2-methylnicotinamide]",,< 1000

# Further lines, results first:
IC50 (human CRHR2-alpha) [nM],IC50 (human CRHR1-beta) [nM],SMILES
< 300,< 1000,"CC(=O)c1ccc(-n2c(=O)n(C[C@H]3CC[C@H](NC(=O)c4cc(Cl)cnc4C)CC3)c3ccccc32)cc1 [Example 18, N((1r,4r)-4-((3-(4-acetylphenyl)-2-oxo-2,3-dihydro-1H-benzo[d]imidazol-1-yl)methyl)cyclohexyl)-5-chloro-2-methylnicotinamide]"
< 300,< 1000,"CNc1ccc(-n2c(=O)n(C[C@H]3CC[C@H](NC(=O)c4cc(Cl)cnc4C)CC3)c3ccccc32)cn1 [Example 91, 5-chloro-2-methyl-N-((1r,4r)-4-((3-(6-(methylamino)pyridin-3-yl)-2-oxo-2,3-dihydro-1H-benzo[d]imidazol-1-yl)methyl)cyclohexyl)nicotinamide]"
< 300,< 1000,"Cc1ncc(Cl)cc1C(=O)N[C@H]1CC[C@H](Cn2c(=O)n(-c3ccc(F)cc3)c3ccccc32)CC1 [Example 15, 5-chloro-N-((1r,4r)-4-((3-(4-fluorophenyl)-2-oxo-2,3-dihydro-1H-benzo[d]imidazol-1-yl)methyl)cyclohexyl)-2-methylnicotinamide]"
< 300,< 1000,"COc1ccc(-n2c(=O)n(C[C@H]3CC[C@H](NC(=O)c4cc(Cl)cnc4C)CC3)c3ccccc32)cc1 [Example 27, 5-chloro-N-((1r,4r)-4-((3-(4-methoxyphenyl)-2-oxo-2,3-dihydro-1H-benzo[d]imidazol-1-yl)methyl)cyclohexyl)-2-methylnicotinamide]"
,< 1000,"Cc1ccc(-n2c(=O)n(C[C@H]3CC[C@H](NC(=O)c4cc(Cl)cnc4C)CC3)c3ccccc32)cn1 [Example 31, 5-chloro-2-methyl-N-((1r,4r)-4-((3-(6-methylpyridin-3-yl)-2-oxo-2,3-dihydro-1H-benzo[d]imidazol-1-yl)methyl)cyclohexyl)nicotinamide]"
,< 1000,"Cc1ncc(Cl)cc1C(=O)N[C@H]1CC[C@H](Cn2c(=O)n(-c3ccc(OCCN(C)C)cc3)c3ccccc32)CC1 [Example 73, 5-chloro-N-((1r,4r)-4-((3-(4-(2-(dimethylamino)ethoxy)phenyl)-2-oxo-2,3-dihydro-1H-benzo[d]imidazol-1-yl)methyl)cyclo-hexyl)-2-methylnicotinamide]"
